Assay results published in patent US20020045638A1, “Method of treating estrogen receptor positive carcinoma” (priority 2000, published 2002).
Read-outs that look alike come from different tables or passages of the source.

How the values were obtained:
MCF-7 tumors = assay: Growth of MCF-7 breast carcinoma implanted in nude mice; type: in vivo; details: for Tumor size (mean ± standard error): 5 mg/kg CCI-779 PO q2d days 1-9
Experimental: In the third standard pharmacological test procedure, mice implanted with MCF-7 tumors were treated with a combination of ERA-923 and CCI-779. […] ERA-923 was dissolved in 1% Tween 80 and 0.9% NaCl Injection USP. Drug was aliquoted into daily doses using 10.0 ml glass bottles and frozen at −20° C. until needed. CCI-779 was made fresh using a 5% ETOH, 4.9% Phosal and 0.1% Tween 80 in Sterile Water. 0.2 ml of each drug was given orally starting the day after tumor implantation. ERA 923 was given daily for the duration of the experiment and CCI-779 was given every other day for the first 10 days. The control vehicles were given on the same regime as the drugs. MCF7 cells were cultured in IMEM containing 5% Fetal Bovine Serum with passages varying from 2-20. After trypsinization tumors were resuspended in IMEM with 2% Serum at a 1:1 ratio with Matrigel. 10 million cells were injected subcutaneously into the mammary tissue of each mouse using a 1.0 ml tuberculin syringe with a 23 3/4 gauge needle. Five to six week old female ovariectomized athymic nu/nu mice (Charles River Labs: Wilmington, Mass.) weighing from 20.0-23.0 g were used. The animals were housed 5 to a cage in a Microisolator Open Rack System (Lab Products: Maywood, N.J.). Each mouse received a 17β-Estradiol pellet (0.72 mg/pellet-60 day release). The pellets were injected with a 10 gauge trochar into the lateral side of the neck between the ear and the shoulder 1-2 weeks prior to tumor injection. Control groups were 15 mice/vehicle whereas the drug groups were 10 mice/drug. Tumors were measured weekly by means of solar calipers (Cole-Parmer Instuments: Vernon Hills, Ill.) and tumor weights were estimated from tumor diameters by the following formula:
Tumor weight (mg)=tumor length (mm)×tumor width (mm)^2/2.
Mice were euthanized 36 days after tumor injection by CO2 inhalation. […] Nude mice bearing MCF-7 tumors were given ERA-923, CCI-779 or the combination of both drugs.

[1] = system: BG-1 human ovarian cancer cells; assay: Inhibition of growth of BG-1 ovarian cancer cells (MTT), with MacSynergy II synergy analysis; type: cell-based; details: for inhibition at 0.005 µM / inhibition at 0.01 µM / inhibition at 0.05 µM / inhibition at 0.1 µM / inhibition at 0.2 µM / inhibition at 0.4 µM: Homo sapiens, read-out: Percent Inhibition; for Percent Inhibition: Table G, ERA-923 0 nM
Experimental: In these test procedures, rapamycin 42-ester with 3-hydroxy-2-(hydroxymethyl)-2-methylpropionic acid was used as a representative rapamycin, and 2-(4-hydroxy-phenyl)-3-methyl-1-[4-(2-piperdin-1-yl-ethoxy)-benzyl-1 H-indol-5-ol, raloxifene, and 4-hydroxytamoxifen were used as representative antiestrogens.
One day before the experiment, cells were plated in 96-well plates at a cell density of 2,500 cells/well in IMEM medium supplemented with 10% fetal bovine serum. The next day, cells were treated with various concentrations of antiestrogen and rapamycin 42-ester with 3-hydroxy-2-(hydroxymethyl)-2-methylpropionic acid (referred to as CCI-779 in the tables below). Five or six-days later, cell growth was monitored.

[2] = system: MCF-7 human breast cancer cells; assay: Inhibition of growth of MCF-7 breast cancer cells (MTT), with MacSynergy II synergy analysis; details: for inhibition at 0.005 µM / inhibition at 0.01 µM / inhibition at 0.05 µM / inhibition at 0.1 µM / inhibition at 0.2 µM / inhibition at 0.4 µM: Homo sapiens;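 as to all read-outs here: cells treated five or six days with single agents or combinations, growth read by MTT, synergy surface equals observed % inhibition minus Bliss additive prediction, values under 0% signal antagonism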
Experimental: MCF-7 human breast cancer cells were maintained at 37° C. in a humidified atmosphere of 5% CO2 and 95% air in IMEM medium supplemented with 10% fetal bovine serum. […] One day before the experiment, cells were plated in 96-well plates at a cell density of 2,500 cells/well in IMEM medium supplemented with 10% fetal bovine serum. The next day, cells were treated with various concentrations of antiestrogen and rapamycin 42-ester with 3-hydroxy-2-(hydroxymethyl)-2-methylpropionic acid (referred to as CCI-779 in the tables below). Five or six-days later, cell growth was monitored. MTT solution (20 ul) (0.5 mg/ml) was added to each well and cells were incubated for an additional 4 h. The solution was then removed and 150 ul of DMSO added. The intensity of dark blue color corresponding to number of cells was read at 540 nm with an automated plate reader.
Briefly, theoretical additive interactions were calculated from the dose-response curves of each individual drug based on Bliss independence model. The calculated additive surface was then subtracted from the experimental surface to obtain a synergy surface representing % inhibition above the calculated additive value-synergy index. […] Likewise, any peak below the 0% plane is indicative of antagonism.

For `CO[C@H]1C[C@@H]2CC[C@@H](C)[C@@](O)(O2)C(=O)C(=O)N2CCCC[C@H]2C(=O)O[C@H]([C@H](C)C[C@@H]2CC[C@@H](OC(=O)C(C)(CO)CO)[C@H](OC)C2)CC(=O)[C@H](C)/C=C(\C)[C@@H](O)[C@@H](OC)C(=O)[C@H](C)C[C@H](C)/C=C/C=C/C=C/1C` [CCI-779, rapamycin 42-ester with 3-hydroxy-2-(hydroxymethyl)-2-methylpropionic acid], the “Tumor size (mean ± standard error)” value (MCF-7 tumors; day 14 after tumor implantation) was 260 ± 18 mg, the “Tumor size (mean ± standard error)” value (MCF-7 tumors; day 21 after tumor implantation) was 485 ± 53 mg and the “Tumor size (mean ± standard error)” value (MCF-7 tumors; day 28 after tumor implantation) was 704 ± 63 mg. The “Tumor size (mean ± standard error)” value (MCF-7 tumors; day 36 after tumor implantation) was 1123 ± 134 mg, the “inhibition of tumor growth” value (MCF-7 tumors; nude mice bearing MCF-7 tumors, growth inhibition=experimental value−200 (baseline)/control value −200) was “approximately 35%” and the inhibition at 0.005 µM ([1]; Table H, CCI-779 5 nM, 4-Hydroxytamoxifen 0 nM) was 21.4%. It also gave an inhibition at 0.01 µM ([1]; Table H, CCI-779 10 nM, 4-Hydroxytamoxifen 0 nM) of 24.9%, an inhibition at 0.05 µM ([1]; Table H, CCI-779 50 nM, 4-Hydroxytamoxifen 0 nM) of 56.3% and an inhibition at 0.1 µM ([1]; Table H, CCI-779 100 nM, 4-Hydroxytamoxifen 0 nM) of 56.4%. It also gave an inhibition at 0.2 µM ([1]; Table H, CCI-779 200 nM, 4-Hydroxytamoxifen 0 nM) of 60.7%, an inhibition at 0.4 µM ([1]; Table H, CCI-779 400 nM, 4-Hydroxytamoxifen 0 nM) of 64.9% and an inhibition at 0.005 µM ([1]; Table I, CCI-779 5 nM, Raloxifene 0 nM) of 8.26%. The inhibition at 0.01 µM ([1]; Table I, CCI-779 10 nM, Raloxifene 0 nM) was 12.5%, the inhibition at 0.05 µM ([1]; Table I, CCI-779 50 nM, Raloxifene 0 nM) was 37.7% and the inhibition at 0.1 µM ([1]; Table I, CCI-779 100 nM, Raloxifene 0 nM) was 42.1%. The inhibition at 0.2 µM ([1]; Table I, CCI-779 200 nM, Raloxifene 0 nM) was 48.4%, the inhibition at 0.4 µM ([1]; Table I, CCI-779 400 nM, Raloxifene 0 nM) was 53% and the “Percent Inhibition” value ([1]; CCI-779 5 nM) was 19.98%. For the same compound, the “Percent Inhibition” value ([1]; CCI-779 10 nM) was 22.68%, the “Percent Inhibition” value ([1]; CCI-779 50 nM) was 49.76% and the “Percent Inhibition” value ([1]; CCI-779 100 nM) was 58.79%. For the same compound, the “Percent Inhibition” value ([1]; CCI-779 200 nM) was 55.65%, the “Percent Inhibition” value ([1]; CCI-779 400 nM) was 61.94% and the “increase of growth inhibition as estimated by the IC50” value ([2]; CCI-779 in the presence of non-inhibitory concentrations of ERA-923) was “approximately 40 fold”. The inhibition at 0.005 µM ([2]; MCF7, read-out: Percent Inhibition, Table B, CCI-779 5 nM, 4-Hydroxytamoxifen 0 nM) was -16.5%, the inhibition at 0.01 µM ([2]; MCF7, read-out: Percent Inhibition, Table B, CCI-779 10 nM, 4-Hydroxytamoxifen 0 nM) was 1.47% and the inhibition at 0.05 µM ([2]; MCF7, read-out: Percent Inhibition, Table B, CCI-779 50 nM, 4-Hydroxytamoxifen 0 nM) was 15%. The inhibition at 0.1 µM ([2]; MCF7, read-out: Percent Inhibition, Table B, CCI-779 100 nM, 4-Hydroxytamoxifen 0 nM) was 24.6%, the inhibition at 0.2 µM ([2]; MCF7, read-out: Percent Inhibition, Table B, CCI-779 200 nM, 4-Hydroxytamoxifen 0 nM) was 25.2% and the inhibition at 0.4 µM ([2]; MCF7, read-out: Percent Inhibition, Table B, CCI-779 400 nM, 4-Hydroxytamoxifen 0 nM) was 34%. For the same compound, the inhibition at 0.005 µM ([2]; MCF7, read-out: Percent Inhibition, Table C, CCI-779 5 nM, Raloxifene 0 nM) was -13.8%, the inhibition at 0.01 µM ([2]; MCF7, read-out: Percent Inhibition, Table C, CCI-779 10 nM, Raloxifene 0 nM) was -3.3% and the inhibition at 0.05 µM ([2]; MCF7, read-out: Percent Inhibition, Table C, CCI-779 50 nM, Raloxifene 0 nM) was 35.3%. It also gave an inhibition at 0.1 µM ([2]; MCF7, read-out: Percent Inhibition, Table C, CCI-779 100 nM, Raloxifene 0 nM) of 38.1%, an inhibition at 0.2 µM ([2]; MCF7, read-out: Percent Inhibition, Table C, CCI-779 200 nM, Raloxifene 0 nM) of 38.1% and an inhibition at 0.4 µM ([2]; MCF7, read-out: Percent Inhibition, Table C, CCI-779 400 nM, Raloxifene 0 nM) of 39.8%. It also gave an inhibition at 0.005 µM ([2]; MCF7, read-out: Percent Inhibition, Table E, CCI-779 0 nM + CCI-779 5 nM) of -4.19%, an inhibition at 0.01 µM ([2]; MCF7, read-out: Percent Inhibition, Table E, CCI-779 0 nM + CCI-779 10 nM) of 10.2% and an inhibition at 0.05 µM ([2]; MCF7, read-out: Percent Inhibition, Table E, CCI-779 0 nM + CCI-779 50 nM) of 49.8%. For the same compound, the inhibition at 0.1 µM ([2]; MCF7, read-out: Percent Inhibition, Table E, CCI-779 0 nM + CCI-779 100 nM) was 46.8%, the inhibition at 0.2 µM ([2]; MCF7, read-out: Percent Inhibition, Table E, CCI-779 0 nM + CCI-779 200 nM) was 53.5% and the inhibition at 0.4 µM ([2]; MCF7, read-out: Percent Inhibition, Table E, CCI-779 0 nM + CCI-779 400 nM) was 55.3%. For the same compound, the inhibition at 0.005 µM ([2]; MCF7, read-out: Percent Inhibition, Table E, CCI-779 5 nM + CCI-779 5 nM) was 13.2%, the inhibition at 0.01 µM ([2]; MCF7, read-out: Percent Inhibition, Table E, CCI-779 5 nM + CCI-779 10 nM) was 18.6% and the inhibition at 0.05 µM ([2]; MCF7, read-out: Percent Inhibition, Table E, CCI-779 5 nM + CCI-779 50 nM) was 49.2%.
